Measured values: patent publication US12220414B2, “Use of sGC stimulators for the treatment of mitochondrial disorders” (Tisento Therapeutics Inc., priority 2018, dated 2025)

What was measured:
[1] = tested on: ADMA; settings: diabetic patients; fourteen-day study (Hanrahan et al 2018); cited from earlier work
[2] = tested on: Pparγ; assay: B-DNA gene expression assay, carbon tetrachloride (CCl4) rat model, liver; type: in vivo, Sprague-Dawley rat; settings: CCl4 rats; 3 mg/kg; FIG. 2C
Experimental: Male, Sprague-Dawley rat were dosed with 0.25 ml/kg of CCl4 PO three times a week diluted in corn oil for the duration of the study (8 weeks). Control animals received an equivalent volume of corn oil. Two weeks after beginning the administration of CCl4, animals were given a chow admixture containing Compound A calculated to achieve doses of 3 mg/kg/day.
(§1) For gene expression analysis, 5-10 mg of tissue samples from ZSF1 rat liver, CCl4 rat liver, or DIO mice brain hypothalamus, or approximately 50 mg of white adipose tissue (WAT) from ZSF1 rat were homogenized and processed using QuantiGene sample processing kit according to manufacturer's instruction (Affymatrix, Fremont, CA). Gene expression in the tissue samples was measured using a QuantiGene 2.0 Plex Assay kit (Affymetrix) and multiplex gene panel specifically designed for each animal model following manufacture instructions. Analytes were measured using Luminex MAGPIX™ (Bio-Rad, Hercules, CA). Median fluorescence intensity (MFI) was generated for each gene target and normalized to the geometric mean expression of selected housekeeping genes, which were chosen to match the target transcript abundance.

[3] = tested on: PGC1α; assay: B-DNA gene expression assay, ZSF1 rat model; type: in vivo; settings: ZSF1 obese rats
Experimental: There are 4 groups of animals in the study design: • 1. ZSF1 Lean—Vehicle (n=6) • 2. ZSF1 Obese—Vehicle (n=9) • 3. ZSF1 Obese—Compound A 10 mg/kg/day (n=9) • 4. […]
Animals in Group 4 was placed on drinking water containing enalapril and kept on Purina 5008 rodent chow (C13000). Animals in Groups 1-3 were kept on Purina 5008 rodent chow and drinking water. Ten days after the initiation of enalapril treatment, […] received Compound A at 10 mg/kg/day, respectively for 11 weeks (monotherapy). Beginning on day 10, animals in Groups 3 and 4 received Compound A at 10 mg/kg/day in addition to enalapril for an additional 11 weeks (combination therapy). […]
as §1, with “Median fluorescence intensity (MFI) was generated for each gene target and normalized to the geometric mean expression of selected housekeeping genes, which were chosen to match the target transcript abundance.” left out

[4] = tested on: Pparα; assay: B-DNA gene expression assay, DIO mouse model, WAT; type: in vivo; settings: DIO mice; 6 mg/kg in diet, 28 days; FIG. 2B (eWAT)
Experimental: (§2) Animals were fed either chow or high fat diet (Research Diets). The lean mice were maintained on a standard chow diet. The obese mice were given 60% high fat diet (HFD) starting at 6 weeks of age. All animals were allowed free access to drinking water and chow. The study began when the mice were 12 weeks of age and concluded after 4 weeks (16 weeks of age). The obese control group was maintained on HFD. Groups receiving compound treatments were fed with HFD containing 90 mg Compound A/kg diet (an approximate dose of 6 mg/kg) or 45 mg vericiguat/kg diet (an approximate dose of 3 mg/kg). Body weights were determined twice weekly and food intake was measured daily for 28 days. […]
as §1, with “Median fluorescence intensity (MFI) was generated for each gene target and normalized to the geometric mean expression of selected housekeeping genes, which were chosen to match the target transcript abundance.” left out

[5] = tested on: AMPK; assay: B-DNA gene expression assay, DIO mouse model, WAT; type: in vivo; settings: DIO mice; 6 mg/kg in diet, 28 days; FIG. 2A (AMPKα1, eWAT)
Experimental: as §2
as §1, with “Median fluorescence intensity (MFI) was generated for each gene target and normalized to the geometric mean expression of selected housekeeping genes, which were chosen to match the target transcript abundance.” left out

[6] = tested on: TFAM; assay: bDNA gene expression assay in patient cells; type: cell-based, human; settings: in the presence of DETA
Experimental: (§3) Lymphoblast cells of LHON patient (GM11605 and GM10742) and Leigh patient (GM13740) were purchased from Coriell institute and cultured according to recommended growth condition from the vendor. The culture medium RPMI-1640 (ATCC, catalog #30-2006) containing 15% fetal bovine serum (Corning catalog #35-015-CV).
(§4) Coriell cells were plated on 96-well V-bottom culture plate (Corning Catalog #3894) at density of 200,000 cells per well in 90 ul RPMI-1640 media containing 2% FBS. Three hours later, 10 μL per well of 10× compounds (at its final conc.) diluted in RPMI-1640 media containing 2% FBS were added to the cells and incubated at 37 C for 24 hrs. The next day, cells were spun down by centrifuging in a benchtop centrifuge (Beckman Model #TJ-25) at 300 g for 5 min, media was removed and cell pellets were lysed in 100 μL/well with lysis mixture provided by QuantiGene sample processing kit (Affymetrix catalog #QS010). Gene expression in the cell lysates was measured using a QuantiGene 2.0 Plex Assay kit (Affymetrix catalog #QP1013) and multiplex gene panel (Thermo/Fisher, plex set #QGP-150-M19022101) according to manufacturer's protocols. Analytes were measured using Luminex MAGPIX™ (Bio-Rad, Hercules, CA). Median fluorescence intensity (MFI) was generated for each gene target and normalized to the geometric mean expression of three housekeeping genes (Hprt1, Ppib and Polr2a), which were chosen to match the target transcript abundance.

[7] = tested on: DDAH2; assay: bDNA gene expression assay in patient cells; type: cell-based, human; settings: in the presence of DETA
Experimental: as §3, §4

[8] = tested on: PGC1α; assay: B-DNA gene expression assay, diet-induced obesity (DIO) mouse model, hypothalamus; type: in vivo; settings: DIO mice, compound in high fat diet; FIG. 1C
Experimental: as §2
as §1, with “Median fluorescence intensity (MFI) was generated for each gene target and normalized to the geometric mean expression of selected housekeeping genes, which were chosen to match the target transcript abundance.” left out

[9] = tested on: Leigh patient cells GM13740; assay: ATP assay (ATPlite); type: cell-based, human; settings: compound alone or in combination with DETA, 24 hrs
Experimental: as §3
(§5) Corielll cells were plated on 96-well V-bottom culture plate (Corning Catalog #3894) at density of 200,000 cells per well in 90 ul RPMI-1640 media containing 2% FBS. Three hours later, 10 μL per well of 10× compounds (at its final conc.) diluted in RPMI-1640 media containing 2% FBS were added to the cells and incubated at 37 C for 24 hrs. The next day, ATP levels in the cells were measure using ATPlite kit (PerkinElmer Cat #6016943)

[10] = tested on: LHON patient cells GM10742; assay: ATP assay (ATPlite); type: cell-based, human; settings: compound alone or in combination with DETA, 24 hrs
Experimental: as §3, §5

[11] = tested on: LHON patient cells GM11605; assay: ATP assay (ATPlite); type: cell-based, human; settings: compound alone or in combination with DETA, 24 hrs
Experimental: as §3, §5

[12] = target: T1, sGC (Homo sapiens, UniProt Q02153); assay: cGMP measurement in mitochondrial disease patient lymphoblast cells; type: cell-based; settings: in combination with DETA
T1 construct: confirming functional expression of sGC in these patient cells; host or cells: human LHON and Leigh patient lymphoblast cells
T1 sequence (Q02153 1-619): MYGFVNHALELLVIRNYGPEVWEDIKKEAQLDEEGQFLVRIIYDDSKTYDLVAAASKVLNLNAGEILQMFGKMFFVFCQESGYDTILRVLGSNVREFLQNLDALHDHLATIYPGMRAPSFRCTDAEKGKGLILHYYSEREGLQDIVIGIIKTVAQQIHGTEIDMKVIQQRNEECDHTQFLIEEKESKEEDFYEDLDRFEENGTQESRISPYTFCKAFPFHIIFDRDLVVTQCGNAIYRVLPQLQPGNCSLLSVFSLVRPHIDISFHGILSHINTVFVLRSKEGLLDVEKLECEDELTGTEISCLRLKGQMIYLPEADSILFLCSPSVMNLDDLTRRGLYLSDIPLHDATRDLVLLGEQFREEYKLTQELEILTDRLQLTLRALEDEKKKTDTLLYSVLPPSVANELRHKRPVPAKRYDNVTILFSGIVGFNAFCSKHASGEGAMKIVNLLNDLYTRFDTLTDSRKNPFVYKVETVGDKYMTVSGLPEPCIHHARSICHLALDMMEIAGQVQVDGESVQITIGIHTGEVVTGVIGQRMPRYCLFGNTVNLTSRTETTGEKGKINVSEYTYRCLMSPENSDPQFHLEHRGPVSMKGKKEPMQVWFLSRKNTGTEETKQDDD
T1 sequence (Q02108 1-690 partner): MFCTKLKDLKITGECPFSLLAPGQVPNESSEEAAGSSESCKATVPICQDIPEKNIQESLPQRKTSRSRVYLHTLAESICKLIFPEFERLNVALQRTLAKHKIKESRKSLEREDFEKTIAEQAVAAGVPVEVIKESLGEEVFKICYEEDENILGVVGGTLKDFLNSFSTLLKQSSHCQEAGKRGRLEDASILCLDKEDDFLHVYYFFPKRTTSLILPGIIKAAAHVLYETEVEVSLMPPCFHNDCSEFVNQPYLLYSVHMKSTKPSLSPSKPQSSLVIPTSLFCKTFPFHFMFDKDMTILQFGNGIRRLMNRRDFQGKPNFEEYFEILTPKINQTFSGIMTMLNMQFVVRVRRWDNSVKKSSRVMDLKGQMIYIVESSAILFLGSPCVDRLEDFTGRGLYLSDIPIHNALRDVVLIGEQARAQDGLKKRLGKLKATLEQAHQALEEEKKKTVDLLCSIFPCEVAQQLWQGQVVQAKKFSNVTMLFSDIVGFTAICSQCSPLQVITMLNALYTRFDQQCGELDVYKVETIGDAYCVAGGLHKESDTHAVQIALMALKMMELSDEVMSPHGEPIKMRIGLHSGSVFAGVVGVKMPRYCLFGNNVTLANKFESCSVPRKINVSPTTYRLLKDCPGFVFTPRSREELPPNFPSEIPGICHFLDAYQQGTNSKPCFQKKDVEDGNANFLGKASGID
Experimental: as §3
On the day of the assay, Coriell cells were plated on 96-well V-bottom culture plate (Corning Catalog #3894) at density of 200,000 cells per well in 100 ul culture media. Right before the assay, cells were spun down by centrifuging in a benchtop centrifuge (Beckman Model #TJ-25) at 300 g for 5 min, media was removed and cell pellets were carefully washed once with 200 μL of HBSS containing Ca^2+ and Mg^2+ (Gibco catalog #14025-075). The cells were spun down, then 90 μL per well of HBSS containing 0.5 mM IBMX was added to the cells and were incubated at 37° C. for 15 min. Then 10 μL per well of 10× compounds (at its final conc.) diluted in HBSS solution containing IBMX plus different concentration of NO donor, DETA (final concentration of 0, 10 μM, 30 μM) was added to the cells and incubated at 37° C. for another 20 min. Cell pellets were spun down and lysed with 0.1 N HCl (100 ul/well). cGMP was measured using a cGMP Biotrak EIA kit (GE cat no. RPN226). cGMP concentrations of the samples were calculated from the standard curve.

## OC(CNc1nc(-c2cc(-c3ccon3)n(Cc3ccccc3F)n2)ncc1F)(C(F)(F)F)C(F)(F)F [Compound A]
[1]
  levels of circulating ADMA: reduced
[2]
  gene expression level of Pparγ in liver: increased
[3]; 10 mg/kg in combination with enalapril at 3 mg/kg, FIG. 1A
  gene expression level of PGC1α in white adipose tissue (WAT): increased
[4]
  gene expression level of Pparα in WAT: increased
[5]
  gene expression level of AMPK in WAT: increased

## Fc1ccccc1Cc1nc(-c2nc(C(F)(F)F)n[nH]2)cn2ccnc12 [Compound B]
[6]; LHON patient cells (GM11605), FIG. 5A
  TFAM gene expression level: increased
[6]; Leigh patient cells (GM13740), FIG. 6A
  TFAM gene expression level: increased
[7]; LHON patient cells (GM11605), FIG. 5B
  DDAH2 gene expression level: increased
[7]; Leigh patient cells (GM13740), FIG. 6B
  DDAH2 gene expression level: increased
[8]
  PGC1α expression in hypothalamus: increased PGC1α expression significantly
[9]
  ATP production / ATP level: increase
[10]
  ATP production / ATP level: increase
[11]
  ATP production / ATP level: increase

## NC(=O)[C@](O)(CNc1nc(-c2cc(-c3ccon3)n(Cc3ccccc3F)n2)ncc1F)C(F)(F)F [Compound D]
[9]
  ATP production / ATP level: increased ATP levels significantly
[3]; 30 mg/kg in combination with enalapril at 3 mg/kg, FIG. 1B
  gene expression level of PGC1α in liver: increased

## Fc1ccccc1Cn1nc(-c2nc(C(F)(F)F)n[nH]2)c2cccnc21 [Compound E]
[9]
  ATP production / ATP level: significantly increase
[11]
  ATP production / ATP level: significantly increase
[12]; LHON patient cells GM10742, FIG. 3B
  cGMP formation: significantly activated
[12]; LHON patient cells GM11605, FIG. 3A
  cGMP formation: significantly activated
[12]; Leigh patient cells GM13740, FIG. 3C
  cGMP formation: significantly activated
